The source made the active and inactive calls.
How the values were obtained:
Cytochrome P450 1A2 = target: T1, Cytochrome P450 1A2 (Homo sapiens, UniProt P05177);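 note: PubChem cytochrome P450 panel assay, CYP1A2 panel member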
T1 sequence (P05177 whole entry): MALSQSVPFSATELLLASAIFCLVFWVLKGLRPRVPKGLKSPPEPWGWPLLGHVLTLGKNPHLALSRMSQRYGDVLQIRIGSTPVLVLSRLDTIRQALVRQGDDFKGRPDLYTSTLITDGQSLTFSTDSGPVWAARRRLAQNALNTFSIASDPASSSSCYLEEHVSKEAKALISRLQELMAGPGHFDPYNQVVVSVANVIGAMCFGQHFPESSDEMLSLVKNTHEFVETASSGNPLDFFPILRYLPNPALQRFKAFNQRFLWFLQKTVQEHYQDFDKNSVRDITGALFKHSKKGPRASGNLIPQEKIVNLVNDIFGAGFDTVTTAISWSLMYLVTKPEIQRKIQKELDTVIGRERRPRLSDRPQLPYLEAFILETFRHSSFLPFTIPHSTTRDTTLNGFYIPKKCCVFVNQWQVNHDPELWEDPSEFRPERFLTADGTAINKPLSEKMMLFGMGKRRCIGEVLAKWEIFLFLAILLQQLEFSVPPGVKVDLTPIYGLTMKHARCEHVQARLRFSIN

Cytochrome P450 2C9 = Cytochrome P450 2C9 (Homo sapiens, UniProt P11712)
Vero = assay: cells; format: functional; details: Chlorocebus sabaeus
[1] = target: T2, Microphthalmia-associated transcription factor (Homo sapiens, UniProt O75030); assay: reducers of TRPM1 reporter luminescence, concentration series – cell-based, SK-MEL-5, cherry-picked, set 3, MITF inhibitor project, dose response (AID 493073); format: functional;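 note: SK-MEL-5 melanoma cells with luciferase driven by the MITF target TRPM1 promoter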
T2 sequence (O75030 whole entry): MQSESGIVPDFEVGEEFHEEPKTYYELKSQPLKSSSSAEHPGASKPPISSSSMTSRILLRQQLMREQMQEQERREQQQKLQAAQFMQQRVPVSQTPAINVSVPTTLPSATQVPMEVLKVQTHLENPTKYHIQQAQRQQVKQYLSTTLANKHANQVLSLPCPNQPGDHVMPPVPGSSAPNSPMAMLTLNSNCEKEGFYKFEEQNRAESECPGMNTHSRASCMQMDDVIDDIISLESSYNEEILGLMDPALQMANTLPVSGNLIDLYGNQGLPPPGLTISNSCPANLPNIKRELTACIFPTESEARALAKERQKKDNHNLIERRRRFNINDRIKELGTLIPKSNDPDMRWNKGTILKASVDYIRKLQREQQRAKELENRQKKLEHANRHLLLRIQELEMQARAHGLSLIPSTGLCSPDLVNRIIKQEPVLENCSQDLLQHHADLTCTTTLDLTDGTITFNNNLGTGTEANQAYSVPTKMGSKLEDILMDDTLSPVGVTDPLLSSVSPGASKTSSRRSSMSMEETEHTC

[2] = Luminescence Cell-Based Dose Retest to Confirm Inhibitors of Cancer Stem Cells. [Related pubchem assays (depositor defined):AID2717, AID2721]; format: functional; details: Homo sapiens
INS1 = assay: INS-1E survival protection against cytokine death – cell-based, luminescence, retest, dose response (AID 449756); format: functional; details: Rattus norvegicus;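 note: cell death triggered by IL-1 beta plus TNF-alpha plus IFN-gamma mixture; protective hits raise ATP signal compared with cytokine alone wells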
Streptococcus = assay: GAS UMAA2166 growth inhibition – luminescence, BacTiterGlo, counter-screen for streptokinase expression inhibitor project, dose response (AID 1915); format: functional, organism-based;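 note: potency for reduction of bacterial viability or growth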
HEK293 = assay: EBV LMP1 TES2 canonical NF-kB signalling blockers – cell-based, HEK293, luciferase, cherry-pick, dose response (AID 588343); format: functional; details: Homo sapiens
[3] = test system: Streptococcus sp. 'group A'; assay: Streptococcus pyogenes SK(-)GAS viability under kanamycin – luminescence, BacTiterGlo, confirmation, counter-screen for streptokinase expression inhibitor project, dose response (AID 1900); format: functional, organism-based
[4] = HEK-293T cell viability reduction – luminescence, B-cell screen hits, cytotoxicity control for BCR NF-kB inhibitor project, dose response (AID 489021); format: functional, cell-based;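 note: HEK-293T cells carrying an NF-kB luciferase reporter; cells exposed to compound for about 14 hours before viability readout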
[5] = target: Peroxisome proliferator-activated receptor gamma/Nuclear receptor coactivator 1 (Homo sapiens, UniProt P37231); assay: TR-FRET dose response biochemical High Throughput Screening assay for agonists of the steroid receptor coactivator 1 (SRC-1) recruitment by the peroxisome proliferator-activated receptor gamma (PPAR gamma): non-selective agonists. [Related pubchem assays (depositor defined):AID1300, AID1808, AID504735, AID631]; format: protein assay
[6] = target: Peroxisome proliferator-activated receptor gamma/Nuclear receptor coactivator 2 (Homo sapiens, UniProt P37231); assay: (§1) TR-FRET dose response biochemical High Throughput Screening assay for agonists of the steroid receptor coactivator 2 (SRC-2) recruitment by the peroxisome proliferator-activated receptor gamma (PPAR gamma): non-selective agonists. [Related pubchem assays: 1297, 1032 ]; format: functional
[7] = target: Peroxisome proliferator-activated receptor gamma/Nuclear receptor coactivator 3 (Homo sapiens, UniProt P37231); assay: as §1, with “3 (SRC-3)” for “2 (SRC-2)”, “1301 (Confirmation screen.), 1048 (Primary screen.)]” for “1297, 1032 ]”; format: functional
Cytochrome P450 2D6 = Cytochrome P450 2D6 (Homo sapiens, UniProt P10635);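 note: CYP2D6 member of a cytochrome P450 panel assay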
[8] = target: Dual specificity tyrosine-phosphorylation-regulated kinase 1A (Rattus norvegicus, UniProt Q63470); format: biochemical, Homo sapiens
[9] = target: T3, Serine/threonine-protein phosphatase (Candida dubliniensis (strain CD36 / CBS 7987 / NCPF 3949 / NRRLY-17841) (Yeast), UniProt B9W6M3); assay: blockers of CaCl2-induced CDRE-lacZ signaling – S. cerevisiae, luminescence, secondary, dose response (AID 2388); format: functional, cell-based;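 note: yeast reporter cells carrying a calcineurin-responsive lacZ construct stimulated with calcium chloride; luminescent beta-galactosidase reporter signal in whole cells rather than isolated phosphatase activity; potency for inhibition where a drop in reporter signal means calcineurin blockade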
T3 sequence (B9W6M3 whole entry): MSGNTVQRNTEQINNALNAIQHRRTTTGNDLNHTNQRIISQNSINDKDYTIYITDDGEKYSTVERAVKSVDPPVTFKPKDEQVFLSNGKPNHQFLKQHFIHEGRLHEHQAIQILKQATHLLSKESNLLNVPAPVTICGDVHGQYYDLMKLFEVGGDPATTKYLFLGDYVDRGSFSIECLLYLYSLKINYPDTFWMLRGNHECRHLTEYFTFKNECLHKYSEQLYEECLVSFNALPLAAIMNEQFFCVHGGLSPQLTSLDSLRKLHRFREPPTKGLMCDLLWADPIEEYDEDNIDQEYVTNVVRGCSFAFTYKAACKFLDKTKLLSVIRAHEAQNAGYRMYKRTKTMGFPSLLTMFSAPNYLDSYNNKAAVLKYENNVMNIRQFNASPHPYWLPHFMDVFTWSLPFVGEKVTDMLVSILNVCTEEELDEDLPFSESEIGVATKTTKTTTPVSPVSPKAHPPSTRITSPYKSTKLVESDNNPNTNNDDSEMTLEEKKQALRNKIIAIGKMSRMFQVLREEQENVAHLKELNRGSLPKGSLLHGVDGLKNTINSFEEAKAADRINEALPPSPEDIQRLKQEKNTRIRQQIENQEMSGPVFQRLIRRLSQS

[10] = target: ATP-dependent molecular chaperone HSP82 (Candida albicans (strain WO-1) (Yeast), UniProt C4YTQ8); assay: steroid-induced GRE reporter decrease in yeast – S. cerevisiae, luminescence, Hsp90 inhibitor project, dose response (AID 2400); format: functional, cell-based;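 note: beta-galactosidase luminescence from glucocorticoid response element reporter as proxy for Hsp90 function; inhibitor potency where signal loss means Hsp90 inhibition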
[11] = NIH-3T3 fibroblast cytotoxicity, dose response, cytotoxicity control, cell-based, fluorescence, Alamar Blue, secondary assay (AID 2327); format: functional;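 note: NIH-3T3 mouse fibroblasts cultured with fluconazole at 8 µg/mL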
[12] = fluconazole-exposed Candida albicans growth modulators – fluorescence, retest, confirmation (AID 2467); format: functional, cell-based
[13] = target: T4, Calpain-2 catalytic subunit (Sus scrofa, UniProt P43367); assay: m-calpain protease blockers, concentration series – biochemical, fluorogenic peptide substrate, dose response (AID 1420); format: functional
T4 sequence (P43367 whole entry): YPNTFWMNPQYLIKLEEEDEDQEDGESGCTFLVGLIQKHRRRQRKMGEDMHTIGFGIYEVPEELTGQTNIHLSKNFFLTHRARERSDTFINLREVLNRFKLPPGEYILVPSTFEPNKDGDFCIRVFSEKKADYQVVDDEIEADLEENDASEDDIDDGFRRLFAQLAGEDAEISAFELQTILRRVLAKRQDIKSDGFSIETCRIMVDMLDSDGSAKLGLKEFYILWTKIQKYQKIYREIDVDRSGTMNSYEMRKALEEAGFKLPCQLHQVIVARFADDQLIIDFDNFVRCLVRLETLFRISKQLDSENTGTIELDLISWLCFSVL

[14] = target: FAD-linked sulfhydryl oxidase ALR (Homo sapiens, UniProt P55789); assay: ALR-catalysed DTT oxidation blockers – biochemical, H2O2 detection, luminescence, cherry-pick, dose response (AID 493248)
Cytochrome P450 3A4 = Cytochrome P450 3A4 (Homo sapiens, UniProt P08684);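 note: CYP3A4 tested as one member of a cytochrome P450 panel screen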
Cytochrome P450 2C19 = Cytochrome P450 2C19 (Homo sapiens, UniProt P33261); assay: Cytochrome panel assay with activity outcomes. Panel member name: p450-cyp2c19 Compounds with AC50 equal or less than 10 uM are considered active; format: functional; details: read-out: AC50
[15] = target: T5, COUP transcription factor 2 (Homo sapiens, UniProt P24468); assay: Luminescence-based cell-based high throughput dose response assay to identify inhibitors of COUP-TFII (NR2F2).; format: functional;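 note: HEK293 cells transiently cotransfected with COUP-TFII expression vector and reporter; luciferase reporter luminescence driven by COUP-TFII from the pX2-168 reporter plasmid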
T5 sequence (P24468 whole entry): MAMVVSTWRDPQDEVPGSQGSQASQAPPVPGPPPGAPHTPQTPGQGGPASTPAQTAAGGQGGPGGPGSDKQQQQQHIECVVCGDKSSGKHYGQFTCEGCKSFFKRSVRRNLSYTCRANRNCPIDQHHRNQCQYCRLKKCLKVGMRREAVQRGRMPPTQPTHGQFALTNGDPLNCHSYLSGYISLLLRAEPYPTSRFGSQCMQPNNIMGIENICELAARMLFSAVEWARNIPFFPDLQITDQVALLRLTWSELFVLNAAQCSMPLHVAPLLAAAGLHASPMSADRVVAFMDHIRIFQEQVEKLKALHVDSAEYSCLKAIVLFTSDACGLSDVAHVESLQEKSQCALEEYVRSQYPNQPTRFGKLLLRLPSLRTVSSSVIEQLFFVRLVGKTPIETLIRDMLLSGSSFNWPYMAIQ

Protein Wnt-3a = Protein Wnt-3a (Mus musculus, UniProt P27467); assay: antagonism of Wnt3a pathway luciferase reporter – Wnt-LIGHT cells, luminescence, selectivity assay for Gli-SUFU antagonist project, dose response (AID 651570); format: functional; details: read-out: IC50_Mean;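 note: Wnt-LIGHT reporter cells stimulated with conditioned medium from Wnt3a-producing cells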
[16] = Trypanosoma cruzi growth suppression in host cells – NIH3T3 host cells, beta-gal luminescence, confirmation (AID 2044); format: functional, cell-based;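 note: intracellular parasites grown in NIH/3T3 mouse fibroblasts as host cells; luminescent beta-galactosidase reporter signal from transgenic T. cruzi replicating inside host cells; inhibitors lower the luminescence signal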
[17] = NIH3T3 cell viability loss – ATP luminescence, mouse fibroblasts, counter-screen, dose response (AID 2010); format: functional, cell-based;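 note: cells exposed to compound for about 90 hours before reading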

Cytochrome P450 2C9, sequence (P11712 whole entry): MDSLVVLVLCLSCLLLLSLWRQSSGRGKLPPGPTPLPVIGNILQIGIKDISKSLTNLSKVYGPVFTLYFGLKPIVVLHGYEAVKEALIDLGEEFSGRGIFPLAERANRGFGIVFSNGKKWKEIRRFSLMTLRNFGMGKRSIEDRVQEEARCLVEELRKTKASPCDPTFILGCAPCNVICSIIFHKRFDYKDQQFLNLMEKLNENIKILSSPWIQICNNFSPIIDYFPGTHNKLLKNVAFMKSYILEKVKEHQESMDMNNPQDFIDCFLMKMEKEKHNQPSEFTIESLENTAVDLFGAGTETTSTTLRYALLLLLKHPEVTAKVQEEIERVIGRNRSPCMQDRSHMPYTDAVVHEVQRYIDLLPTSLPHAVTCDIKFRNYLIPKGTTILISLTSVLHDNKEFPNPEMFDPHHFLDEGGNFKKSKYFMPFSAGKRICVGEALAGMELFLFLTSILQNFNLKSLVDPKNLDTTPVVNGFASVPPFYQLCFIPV
Peroxisome proliferator-activated receptor gamma/Nuclear receptor coactivator 2, sequence (P37231 whole entry): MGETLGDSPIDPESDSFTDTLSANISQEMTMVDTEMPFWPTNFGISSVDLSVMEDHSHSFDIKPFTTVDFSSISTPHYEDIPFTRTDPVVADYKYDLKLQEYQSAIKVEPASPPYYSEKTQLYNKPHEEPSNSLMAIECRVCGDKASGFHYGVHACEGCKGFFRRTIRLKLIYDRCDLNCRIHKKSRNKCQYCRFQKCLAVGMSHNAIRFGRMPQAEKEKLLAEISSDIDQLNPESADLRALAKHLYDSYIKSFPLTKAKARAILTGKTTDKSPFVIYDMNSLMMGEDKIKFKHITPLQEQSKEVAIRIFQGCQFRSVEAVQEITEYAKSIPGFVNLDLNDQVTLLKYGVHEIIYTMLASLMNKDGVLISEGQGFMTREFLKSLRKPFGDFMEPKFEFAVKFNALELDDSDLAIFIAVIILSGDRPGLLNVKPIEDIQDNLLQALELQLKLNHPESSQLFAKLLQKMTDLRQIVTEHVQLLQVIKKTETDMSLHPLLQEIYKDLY
Peroxisome proliferator-activated receptor gamma/Nuclear receptor coactivator 2, sequence (Q15596 whole entry, further chain): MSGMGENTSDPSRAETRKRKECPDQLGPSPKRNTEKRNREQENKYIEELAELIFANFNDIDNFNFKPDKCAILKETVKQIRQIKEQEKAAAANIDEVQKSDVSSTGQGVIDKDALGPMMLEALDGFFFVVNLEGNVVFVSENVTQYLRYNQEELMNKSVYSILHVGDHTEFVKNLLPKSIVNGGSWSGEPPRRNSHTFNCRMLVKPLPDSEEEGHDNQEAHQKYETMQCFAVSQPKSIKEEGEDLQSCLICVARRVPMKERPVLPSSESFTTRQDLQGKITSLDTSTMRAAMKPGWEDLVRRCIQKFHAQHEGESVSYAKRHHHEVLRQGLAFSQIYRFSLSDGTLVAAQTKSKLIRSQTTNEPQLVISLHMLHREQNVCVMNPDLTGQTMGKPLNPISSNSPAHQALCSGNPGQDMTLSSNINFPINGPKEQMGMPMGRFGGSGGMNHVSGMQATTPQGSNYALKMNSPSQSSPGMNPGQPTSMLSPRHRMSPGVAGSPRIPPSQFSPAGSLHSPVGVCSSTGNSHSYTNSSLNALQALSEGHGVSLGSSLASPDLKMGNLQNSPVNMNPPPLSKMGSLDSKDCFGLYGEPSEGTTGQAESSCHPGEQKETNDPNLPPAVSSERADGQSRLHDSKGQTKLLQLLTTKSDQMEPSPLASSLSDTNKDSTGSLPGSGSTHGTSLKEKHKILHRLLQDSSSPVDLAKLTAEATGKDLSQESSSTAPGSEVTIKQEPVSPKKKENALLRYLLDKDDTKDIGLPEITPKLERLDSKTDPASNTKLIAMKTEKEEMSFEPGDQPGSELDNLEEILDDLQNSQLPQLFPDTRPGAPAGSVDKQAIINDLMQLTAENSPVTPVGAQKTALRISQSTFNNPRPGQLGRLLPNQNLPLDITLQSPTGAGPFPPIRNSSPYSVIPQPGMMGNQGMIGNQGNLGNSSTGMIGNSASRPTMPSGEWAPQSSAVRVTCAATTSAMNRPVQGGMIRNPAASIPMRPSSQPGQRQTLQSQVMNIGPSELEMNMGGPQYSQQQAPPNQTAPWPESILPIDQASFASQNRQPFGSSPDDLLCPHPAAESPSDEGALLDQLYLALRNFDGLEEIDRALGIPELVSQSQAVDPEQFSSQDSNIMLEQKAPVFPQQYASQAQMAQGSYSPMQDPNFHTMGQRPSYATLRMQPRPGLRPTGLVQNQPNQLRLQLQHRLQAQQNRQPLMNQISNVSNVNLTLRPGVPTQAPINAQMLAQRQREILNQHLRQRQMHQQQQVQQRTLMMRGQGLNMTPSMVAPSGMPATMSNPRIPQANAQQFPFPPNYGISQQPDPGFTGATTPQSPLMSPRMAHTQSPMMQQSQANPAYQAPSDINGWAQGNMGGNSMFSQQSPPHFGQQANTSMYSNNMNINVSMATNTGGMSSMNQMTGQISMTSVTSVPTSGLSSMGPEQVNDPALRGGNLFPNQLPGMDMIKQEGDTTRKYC
Peroxisome proliferator-activated receptor gamma/Nuclear receptor coactivator 3, sequence (P37231 whole entry): as the sequence (P37231 whole entry) above
Peroxisome proliferator-activated receptor gamma/Nuclear receptor coactivator 3, sequence (Q9Y6Q9 whole entry, further chain): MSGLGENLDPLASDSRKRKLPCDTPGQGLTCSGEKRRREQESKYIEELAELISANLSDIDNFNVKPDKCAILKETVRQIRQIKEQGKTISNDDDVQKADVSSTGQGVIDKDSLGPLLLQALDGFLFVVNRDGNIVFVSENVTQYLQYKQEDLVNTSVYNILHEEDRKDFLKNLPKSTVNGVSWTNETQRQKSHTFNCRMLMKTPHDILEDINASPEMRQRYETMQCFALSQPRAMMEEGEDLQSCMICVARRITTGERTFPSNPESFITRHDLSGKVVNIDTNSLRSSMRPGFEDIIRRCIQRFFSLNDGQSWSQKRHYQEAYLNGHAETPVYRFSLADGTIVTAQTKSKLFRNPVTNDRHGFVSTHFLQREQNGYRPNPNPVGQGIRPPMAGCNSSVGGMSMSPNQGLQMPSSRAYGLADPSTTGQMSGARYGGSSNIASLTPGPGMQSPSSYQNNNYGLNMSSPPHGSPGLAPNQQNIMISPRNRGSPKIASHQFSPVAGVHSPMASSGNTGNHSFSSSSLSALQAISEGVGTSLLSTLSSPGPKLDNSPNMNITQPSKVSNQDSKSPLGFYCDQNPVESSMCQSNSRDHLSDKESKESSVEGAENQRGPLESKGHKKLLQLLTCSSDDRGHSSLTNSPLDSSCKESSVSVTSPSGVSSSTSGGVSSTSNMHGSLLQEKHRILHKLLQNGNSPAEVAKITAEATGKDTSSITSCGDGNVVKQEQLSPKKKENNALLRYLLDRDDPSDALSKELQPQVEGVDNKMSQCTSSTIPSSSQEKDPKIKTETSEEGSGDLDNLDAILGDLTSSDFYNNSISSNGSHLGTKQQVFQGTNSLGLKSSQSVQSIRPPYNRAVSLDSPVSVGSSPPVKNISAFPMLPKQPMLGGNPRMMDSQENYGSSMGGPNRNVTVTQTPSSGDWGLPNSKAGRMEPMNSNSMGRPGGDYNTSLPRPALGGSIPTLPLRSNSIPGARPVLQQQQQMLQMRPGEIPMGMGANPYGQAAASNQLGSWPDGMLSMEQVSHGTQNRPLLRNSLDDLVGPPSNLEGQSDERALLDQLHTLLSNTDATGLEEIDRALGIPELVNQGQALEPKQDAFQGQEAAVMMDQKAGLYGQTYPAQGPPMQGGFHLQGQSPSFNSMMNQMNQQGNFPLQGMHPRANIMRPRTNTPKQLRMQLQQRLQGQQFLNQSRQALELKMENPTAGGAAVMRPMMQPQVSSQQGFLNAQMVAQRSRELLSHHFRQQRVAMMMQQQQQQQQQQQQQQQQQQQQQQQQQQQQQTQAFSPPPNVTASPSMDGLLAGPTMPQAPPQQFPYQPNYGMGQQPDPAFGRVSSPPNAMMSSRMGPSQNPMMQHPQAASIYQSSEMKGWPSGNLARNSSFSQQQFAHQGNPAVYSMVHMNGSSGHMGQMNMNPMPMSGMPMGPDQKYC
Protein Wnt-3a, sequence (P27467 whole entry): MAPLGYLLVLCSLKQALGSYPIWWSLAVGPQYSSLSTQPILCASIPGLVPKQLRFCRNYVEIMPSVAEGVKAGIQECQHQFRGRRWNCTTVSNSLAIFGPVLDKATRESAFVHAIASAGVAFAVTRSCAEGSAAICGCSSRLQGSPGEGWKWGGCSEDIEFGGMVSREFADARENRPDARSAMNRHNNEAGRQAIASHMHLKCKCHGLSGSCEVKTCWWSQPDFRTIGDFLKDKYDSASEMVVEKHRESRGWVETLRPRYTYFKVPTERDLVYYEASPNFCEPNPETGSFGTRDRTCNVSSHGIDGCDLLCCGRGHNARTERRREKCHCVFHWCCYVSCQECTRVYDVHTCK
FAD-linked sulfhydryl oxidase ALR, sequence (P55789 whole entry): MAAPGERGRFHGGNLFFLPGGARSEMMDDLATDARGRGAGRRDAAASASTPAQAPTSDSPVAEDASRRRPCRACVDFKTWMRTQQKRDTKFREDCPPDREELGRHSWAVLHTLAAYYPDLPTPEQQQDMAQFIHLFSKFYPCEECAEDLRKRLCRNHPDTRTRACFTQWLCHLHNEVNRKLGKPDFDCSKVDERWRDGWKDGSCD

## CCCN(CCC)CCc1c[nH]c2ccc(C(N)=O)cc12
Cytochrome P450 1A2
  AC50: 15.8 µM (inconclusive)
Cytochrome P450 2C9
  AC50: inconclusive

## O=C(NCc1ccco1)c1nc(O)c2nnn(Cc3ccccc3Cl)c2n1
Vero
  CC50: 18.9 µM (active)
[1]
  AC50: 14.4 µM (active)
[2]
  AC50: 2.4 µM (active)

## Cc1cc(N/N=C\c2ccc(Br)cc2)nc(-n2nc(C)cc2C)n1
INS1
  AC50: 2.43 µM (active)
Streptococcus
  EC50: 3.74 µM (active)
HEK293
  AC50: 3.83 µM (active)
[3]
  EC50: 1.01 µM (active)

## CCn1c(=O)cc(SCC(=O)N2CCN(C)CC2)c2ccccc21
[4]
  IC50: > 80 µM (inactive)
[5]
  EC50: > 79.4 µM (inactive)
[6]
  EC50: > 79.4 µM (not active)
[7]
  EC50: > 79.4 µM (not active)

## CC(=O)N1N=C(c2ccc(Br)cc2)CC1c1cn(C)c2ccccc12 (configuration not stated)
[5]
  EC50: 18.5 µM (inactive)
[6]
  EC50: 18.3 µM (not active)
[7]
  EC50: > 79.4 µM (not active)

## CCCCN1CCC(CCC(=O)c2cc(Cl)c(N)cc2OC)CC1
Cytochrome P450 2D6
  AC50: 12.6 µM (inconclusive)
Cytochrome P450 2C9
  AC50: inconclusive

## COCCn1c(C)cc(C(=O)COC(=O)C23CC4CC(CC(O)(C4)C2)C3)c1C
HEK293
  AC50: 7.37 µM (active)

## Cc1ccc(C)c(OCC(=O)OCc2csc(CC(=O)Nc3ccccc3C)n2)c1
Vero
  CC50: > 25 µM (active)

## Cn1c(=O)cc(SCC(=O)Nc2cccnc2)c2ccccc21
[5]
  EC50: > 79.4 µM (inactive)
[6]
  EC50: > 79.4 µM (not active)
[7]
  EC50: > 79.4 µM (not active)

## Nc1ccccc1-c1nnc(S)s1
[5]
  EC50: 14.9 µM (inactive)
[6]
  EC50: 15.6 µM (not active)
[7]
  EC50: > 79.4 µM (not active)

## CCO/C(=C/c1sc2ccc(OC)cc2[n+]1CCCS(=O)(=O)[O-])CC
[8]
  AC50: 9.02 µM (active)

## Cc1ccccc1C(=O)c1c[nH]c(C(=O)NCc2ccco2)c1
HEK293
  AC50: 11.2 µM (active)

## CCOC(=O)c1c(-c2ccccc2Cl)cn2ccccc12
[9]
  EC50: > 180 µM (inactive)
[10]
  EC50: 17.4 µM (active)
[11]
  EC50: > 160 µM (inactive)
[12]
  EC50: 3.75 µM (active)

## COc1cc(/C=C2/SC(=O)NC2=O)ccc1Oc1ccc([N+](=O)[O-])cc1[N+](=O)[O-]
[13]
  IC50: 7.36 µM (not active)
[8]
  AC50: 0.992 µM (active)
[14]
  AC50: 0.156 µM (active)

## CN(CCCNC(=O)C1CCN(S(=O)(=O)c2cccc3nsnc23)CC1)Cc1ccccc1
Cytochrome P450 3A4
  AC50: 3.16 µM (inconclusive)
Cytochrome P450 2C19
  AC50: 39.8 µM (inconclusive)
Cytochrome P450 2C9
  AC50: inconclusive

## Cc1sc2ncnc(NCC3COc4ccccc4O3)c2c1C (configuration not stated)
[15]
  IC50: 3.38 µM (active)
INS1
  AC50: 1.68 µM (active)
HEK293
  AC50: 35.9 µM (active)
Protein Wnt-3a
  IC50: 0.441 µM (active)

## COc1ccc(/C=C2/SC(=S)N(CCCC(=O)N3CCN(C)CC3)C2=O)cc1
Vero
  CC50: > 25 µM (active)

## C[n+]1c2n(c3ccccc31)N=C(c1ccc(-c3ccccc3)cc1)CS2
[9]
  EC50: > 180 µM (inactive)
[15]
  IC50: 5.03 µM (active)
INS1
  AC50: 1.32 µM (active)
[16]
  EC50: 0.376 µM (active)
[10]
  EC50: > 160 µM (inactive)
[11]
  EC50: > 160 µM (inactive)
[17]
  EC50: 9.85 µM (active)
[12]
  EC50: 0.452 µM (active)
Protein Wnt-3a
  IC50: 0.736 µM (active)
